Results: patent EP0114128A1, “3-Amino-2-oxo-azetidine derivatives containing in position 1 a nitrogen heterocyclic radical, process for their preparation, their use as therapeutical agents and intermediates for their preparation” (priority 1983, dated 1984)
In brackets after ≈: the same amount, converted by molar mass. Where two headings read alike, the source gives them in different places.

Key:
Assay in all cases: In vitro activity, dilution method in liquid medium (MIC)
Assay type in all cases: cell-based
[1] = system: Enterobacter cloacae 1321 E; conditions: read-out: concentrations minimales inhibitrices (C. M. I.)
Method: (§1) Etude pharmacologiaue des produits de l'invention. Activité in vitro, méthode des dilutions en milieu liquide.
(§2) On prépare une série de tubes dans lesquels on répartit une même quantité de milieu nutritif stérile. On distribue dans chaque tube des quantités croissantes du produit à étudier, puis chaque tube est ensemencé avec une souche bactérienne. Après incubation de vingt-quatre ou quarante-huit heures à l'étuve à 37°C, l'inhibition de la croissance est appréciée par transillumination ce qui permet de déterminer les concentrations minimales inhibitrices (C. M. I.) exprimées en µg/cm3.

Escherichia Coli 078 = conditions: read-out: concentrations minimales inhibitrices (C. M. I.)
Method: as §1, §2

Escherichia Coli 1507 E = conditions: COLI1507E, read-out: concentrations minimales inhibitrices (C. M. I.)
Method: as §1, §2

Escherichia Coli 1894 = conditions: read-out: concentrations minimales inhibitrices (C. M. I.)
Method: as §1, §2

Escherichia Coli DC0 = conditions: read-out: concentrations minimales inhibitrices (C. M. I.)
Method: as §1, §2

Escherichia Coli DC2 = conditions: read-out: concentrations minimales inhibitrices (C. M. I.)
Method: as §1, §2

Escherichia Coli TEM = conditions: read-out: concentrations minimales inhibitrices (C. M. I.)
Method: as §1, §2

[2] = system: Klebsiella Aeruginosa 1522 E; conditions: read-out: concentrations minimales inhibitrices (C. M. I.)
Method: as §1, §2

[3] = system: Klebsiella pneumonae 52145; conditions: read-out: concentrations minimales inhibitrices (C. M. I.)
Method: as §1, §2

Proteus mirabilis A 235 = conditions: read-out: concentrations minimales inhibitrices (C. M. I.)
Method: as §1, §2

Proteus vulgaris A 232 = conditions: read-out: concentrations minimales inhibitrices (C. M. I.)
Method: as §1, §2

Providencia DU 48 = conditions: read-out: concentrations minimales inhibitrices (C. M. I.)
Method: as §1, §2

[4] = system: Salmonella typhimurium MZ 11; conditions: Salmonella enterica, read-out: concentrations minimales inhibitrices (C. M. I.)
Method: as §1, §2

Serratia marcesceus 2532 = conditions: read-out: concentrations minimales inhibitrices (C. M. I.)
Method: as §1, §2

[5] = system: Pseudomonas aeruginosa 1771 m; conditions: read-out: concentrations minimales inhibitrices (C. M. I.)
Method: as §1, §2

[6] = COLI078, 24 H incubation at 37°C
[7] = COLI078, 48 H incubation at 37°C
[8] = COLI1894, 24 H incubation at 37°C
[9] = COLI1894, 48 H incubation at 37°C
[10] = COLIDC0, 24 H incubation at 37°C
[11] = COLIDC0, 48 H incubation at 37°C
[12] = COLIDC2, 24 H incubation at 37°C
[13] = COLIDC2, 48 H incubation at 37°C

Structure (SMILES) | MIC ([1]; 24 H incubation at 37°C) [µg/mL] | MIC ([1]; 48 H incubation at 37°C) [µg/mL] | MIC (Escherichia Coli 078; [6]) [µg/mL] | MIC (Escherichia Coli 078; [7]) [µg/mL] | MIC (Escherichia Coli 1507 E; 24 H incubation at 37°C) [µg/mL] | MIC (Escherichia Coli 1507 E; 48 H incubation at 37°C) [µg/mL] | MIC (Escherichia Coli 1894; [8]) [µg/mL] | MIC (Escherichia Coli 1894; [9]) [µg/mL] | MIC (Escherichia Coli DC0; [10]) [µg/mL] | MIC (Escherichia Coli DC0; [11]) [µg/mL] | MIC (Escherichia Coli DC2; [12]) [µg/mL] | MIC (Escherichia Coli DC2; [13]) [µg/mL] | MIC (Escherichia Coli TEM; 24 h) [µg/mL] | MIC (Escherichia Coli TEM; 48 h) [µg/mL] | MIC ([2]; 24 H incubation at 37°C) [µg/mL] | MIC ([2]; 48 H incubation at 37°C) [µg/mL] | MIC ([3]; 24 H incubation at 37°C) [µg/mL] | MIC ([3]; 48 H incubation at 37°C) [µg/mL] | MIC (Proteus mirabilis A 235; A235, 24 H incubation at 37°C) [µg/mL] | MIC (Proteus mirabilis A 235; A235, 48 H incubation at 37°C) [µg/mL] | other results
CO/N=C(\C(=O)N[C@@H]1C(=O)N(c2nn[nH]n2)[C@@H]1CF)c1csc(N)n1 (racemic) [Prod. ex. 11, (3SR,4SR) 3-//2-(2-aminothiazol-4-yl) 2-méthoxyimino acétyl/ amino/ 4-(fluorométhyl) 1-(1-H-tétrazol-5-yl) 2-azétidinone] | 0.3 (≈ 0.812 µM) | 0.3 (≈ 0.812 µM) | 0.15 (≈ 0.406 µM) | 0.15 (≈ 0.406 µM) | 0.08 (≈ 0.217 µM) | 0.08 (≈ 0.217 µM) | ≤ 0.04 | ≤ 0.04 | 0.6 (≈ 1.62 µM) | 0.6 (≈ 1.62 µM) | 0.15 (≈ 0.406 µM) | 0.15 (≈ 0.406 µM) | 0.6 (≈ 1.62 µM) | 0.6 (≈ 1.62 µM) | 0.6 (≈ 1.62 µM) | 0.6 (≈ 1.62 µM) | 1.2 (≈ 3.25 µM) | 1.2 (≈ 3.25 µM) | 0.15 (≈ 0.406 µM) | 0.15 (≈ 0.406 µM) | MIC (Proteus vulgaris A 232; A232, 24 H incubation at 37°C): 0.15 µg/mL (≈ 0.406 µM); MIC (Proteus vulgaris A 232; A232, 48 H incubation at 37°C): 0.15 µg/mL (≈ 0.406 µM); MIC (Providencia DU 48; DU48, 24 H incubation at 37°C): 1.2 µg/mL (≈ 3.25 µM); MIC (Providencia DU 48; DU48, 48 H incubation at 37°C): 1.2 µg/mL (≈ 3.25 µM); MIC ([4]; 24 H incubation at 37°C): 0.3 µg/mL (≈ 0.812 µM); MIC ([4]; 48 H incubation at 37°C): 0.3 µg/mL (≈ 0.812 µM); MIC (Serratia marcesceus 2532; 24 H incubation at 37°C): 10 µg/mL (≈ 27.1 µM); MIC (Serratia marcesceus 2532; 48 H incubation at 37°C): 10 µg/mL (≈ 27.1 µM)
CO/N=C(\C(=O)N[C@H]1CN(c2nn[nH]n2)C1=O)c1csc(N)n1 [Prod. ex.3, (3S) 3-//2-(2-aminothiazol-4-yl) 2-méthoxyimino acétyl /amino/ 1-(lH-tétrazol-5-yl) 2-azétidinone] | 0.3 (≈ 0.889 µM) | 0.3 (≈ 0.889 µM) | 0.3 (≈ 0.889 µM) | 0.3 (≈ 0.889 µM) | 0.6 (≈ 1.78 µM) | 0.6 (≈ 1.78 µM) | 0.15 (≈ 0.445 µM) | 0.15 (≈ 0.445 µM) | 0.6 (≈ 1.78 µM) | 1.2 (≈ 3.56 µM) | 0.6 (≈ 1.78 µM) | 0.6 (≈ 1.78 µM) | 10 (≈ 29.6 µM) | 10 (≈ 29.6 µM) | 0.3 (≈ 0.889 µM) | 0.3 (≈ 0.889 µM) | 1.2 (≈ 3.56 µM) | 1.2 (≈ 3.56 µM) | 0.6 (≈ 1.78 µM) | 0.6 (≈ 1.78 µM) | MIC (Proteus vulgaris A 232; A232, 24 H incubation at 37°C): 0.3 µg/mL (≈ 0.889 µM); MIC (Proteus vulgaris A 232; A232, 48 H incubation at 37°C): 0.3 µg/mL (≈ 0.889 µM); MIC (Providencia DU 48; DU48, 24 H incubation at 37°C): 0.3 µg/mL (≈ 0.889 µM); MIC (Providencia DU 48; DU48, 48 H incubation at 37°C): 0.6 µg/mL (≈ 1.78 µM); MIC ([5]; 24 H incubation at 37°C): 5 µg/mL (≈ 14.8 µM); MIC ([5]; 48 H incubation at 37°C): 10 µg/mL (≈ 29.6 µM); MIC ([4]; 24 H incubation at 37°C): 0.3 µg/mL (≈ 0.889 µM); MIC ([4]; 48 H incubation at 37°C): 0.3 µg/mL (≈ 0.889 µM); MIC (Serratia marcesceus 2532; 24 H incubation at 37°C): 2.5 µg/mL (≈ 7.41 µM); MIC (Serratia marcesceus 2532; 48 H incubation at 37°C): 5 µg/mL (≈ 14.8 µM)
